# Source: patent US9708336B2, “Metallo-beta-lactamase inhibitors” (priority 2014, dated 2017)
# Read-outs that look alike come from different tables or passages of the source.
# Columns and labels:
# VIM-1 = VIM-1 (Pseudomonas aeruginosa (strain ATCC 15692 / DSM 22644 / CIP 104116 / JCM 14847 / LMG 12228 / 1C / PRS 101 / PAO1), UniProt A0A0F7KYQ8); test: Enzyme activity: determination of IC50, fluorescence assay with CCF2-FA substrate (VIM-1); type: biochemical
# [1] = test system: Klebsiella pneumoniae expressing VIM-1 (IHMA599644); test: Antibiotic potentiation activity: synergistic concentration (MITC95) with imipenem, OD600 growth; type: cell-based; details: for Klebsiella pneumoniae expressing VIM-1 (IHMA 599644) MITC95: concentration giving 95% inhibition of bacterial growth
# Summary of the method: (§1)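 Each strain, suspended in saline from overnight colonies and diluted 1:100 into 1.1× CAMHB, is dosed with imipenem at 4 μg/ml (or 1 μg/ml) plus compound, incubated 22–24 h at 35 °C and read by absorbance.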
# [2] = test system: Serratia marcescens expressing IMP-1 (CL5741); test: as above; type: cell-based; details: for Serratia marcescens expressing IMP-1 (CL5741) MITC95: concentration giving 95% inhibition of bacterial growth
# Summary of the method: as §1
# [3] = test system: Escherichia coli expressing NDM-1 (CLB30016); test: as above; type: cell-based; details: for Escherichia coli expressing NDM-1 (CLB 30016) MITC95: concentration giving 95% inhibition of bacterial growth
# Summary of the method: as §1
# NDM-1 = NDM-1 (Klebsiella pneumoniae, UniProt C7C422); test: biochemical; type: biochemical; details: read-out: NDM-1 IC50
# IMP-1 = IMP-1 (Serratia marcescens, UniProt P52699); test: biochemical; type: biochemical; details: read-out: IMP-1 IC50
# Experimental: Enzyme Activity: Determination of IC50
# The Class B enzyme activities were measured in the presence of the test inhibitor in a fluorescence assay against a commercially available substrate consisting of a cephalosporin core linking 7-hydroxycoumarin to fluorescein (CCF2-FA). The enzyme (NDM-1, IMP-1 or VIM-1) and the substrate were diluted in 100 mM KH2PO4 buffer (pH 7) containing 0.005% Tween-20 and 10 μM ZnSO4. […] The test inhibitor was dissolved in dimethylsulfoxide and diluted 1:50 in the assay, resulting in a final concentration range of 20 uM to 0.00063 uM. In a 384-well microplate, the test inhibitor was incubated with the metallo-β-lactamase enzyme and the substrate for 2 hours at 25° C. Fluorescence at 460 nm following excitation at 405 nm was measured. The IC50 value was determined from semi-logarithmic plots of enzyme inhibition versus inhibitor concentration, with a curve generated using a 4-parameter fit.
# [4] = fluorescence assay with CCF2-FA substrate, read-out: VIM-1 IC50
# [5] = fluorescence assay with CCF2-FA substrate
# [6] = VIM-1 IC50, fluorescence assay with CCF2-FA substrate
# [7] = VIM-1 enzyme, CCF2-FA fluorescence assay, read-out: VIM-1 IC50
# [8] = Klebsiella pneumoniae expressing VIM-1 (IHMA599644), 95% growth inhibition
# [9] = Serratia marcescens expressing IMP-1 (CL5741), 95% growth inhibition
# [10] = Escherichia coli expressing NDM-1 (CLB30016), 95% growth inhibition
# [11] = NDM-1 enzyme, CCF2-FA fluorescence assay
# [12] = IMP-1 enzyme, CCF2-FA fluorescence assay
# [13] = VIM-1 IC50, VIM-1 enzyme, CCF2-FA substrate
# [14] = Klebsiella pneumoniae IHMA599644 (VIM-1), 95% growth inhibition
# [15] = Serratia marcescens CL5741 (IMP-1), 95% growth inhibition
# [16] = (CLB30016, NDM-1), 95% growth inhibition
# [17] = NDM-1 enzyme, CCF2-FA substrate
# [18] = IMP-1 enzyme, CCF2-FA substrate
# [19] = VIM-1 enzyme, CCF2-FA substrate, read-out: VIM-1 IC50
# Chain of IMP-1 (P52699 whole entry, looked up): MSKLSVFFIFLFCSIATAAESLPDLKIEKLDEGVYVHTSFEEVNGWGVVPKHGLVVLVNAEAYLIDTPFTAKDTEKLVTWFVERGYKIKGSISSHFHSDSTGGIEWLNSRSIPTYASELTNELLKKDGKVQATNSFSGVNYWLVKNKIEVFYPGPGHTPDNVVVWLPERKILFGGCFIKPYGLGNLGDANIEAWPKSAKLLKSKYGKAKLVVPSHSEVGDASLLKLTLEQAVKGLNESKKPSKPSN
# Chain of NDM-1 (C7C422 whole entry, looked up, species assumed): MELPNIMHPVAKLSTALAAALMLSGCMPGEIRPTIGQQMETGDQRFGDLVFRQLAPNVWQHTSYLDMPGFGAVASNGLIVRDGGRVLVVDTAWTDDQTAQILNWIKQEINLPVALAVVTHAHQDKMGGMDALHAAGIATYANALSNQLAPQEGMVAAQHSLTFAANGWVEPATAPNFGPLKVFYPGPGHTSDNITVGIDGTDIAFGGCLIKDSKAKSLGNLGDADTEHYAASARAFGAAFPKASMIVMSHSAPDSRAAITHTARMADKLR
smiles,measurement,setting,value
"N=C(N)N1CCC(c2ccc(-c3cccc(S(N)(=O)=O)c3-c3nn[nH]n3)cc2)CC1 [Example 32, 4-(3′-Sulfamoyl-2′-(2H-tetrazol-5-yl)-[1,1′-biphenyl]-4-yl)piperidine-1-carboximidamide]",IC50,VIM-1; [4],77.8 nM
same,Klebsiella pneumoniae expressing VIM-1 (IHMA 599644) MITC95,[1],25 µM
same,Serratia marcescens expressing IMP-1 (CL5741) MITC95,[2],0.7813 µM
same,Escherichia coli expressing NDM-1 (CLB 30016) MITC95,[3],0.5859 µM
same,IC50,NDM-1; [5],3.46 nM
same,IC50,IMP-1; [5],18 nM
"NS(=O)(=O)c1cccc(CC2CCCCC2)c1-c1nnn[nH]1 [Example 153, 3-(cyclohexylmethyl)-2-(1H-tetrazol-5-yl)benzenesulfonamide]",IC50,VIM-1; [6],252 nM
same,Klebsiella pneumoniae expressing VIM-1 (IHMA 599644) MITC95,[1],>200 µM
same,Serratia marcescens expressing IMP-1 (CL5741) MITC95,[2],2.344 µM
same,Escherichia coli expressing NDM-1 (CLB 30016) MITC95,[3],4.688 µM
same,IC50,NDM-1; [5],8.25 nM
same,IC50,IMP-1; [5],71.3 nM
"CC(C)c1ccc(C(F)(F)F)c(S(N)(=O)=O)c1-c1nnn[nH]1 [Example 488, 3-isopropyl-2-(1H-tetrazol-5-yl)-6-(trifluoromethyl)benzenesulfonamide]",IC50,VIM-1; [7],3.44 nM
same,Klebsiella pneumoniae MITC95,[1]; [8],4.688 µM
same,Serratia marcescens MITC95,[2]; [9],0.7813 µM
same,Escherichia coli MITC95,[3]; [10],1.563 µM
same,IC50,NDM-1; [11],7.9 nM
same,IC50,IMP-1; [12],18.8 nM
"NS(=O)(=O)c1c(C(F)(F)F)ccc([C@H]2CC[C@H](N[C@H]3CC[C@H]4CCN[C@H]4C3)CC2)c1-c1nnn[nH]1 [Example 679, 3-{4-[(3aS,6S,7aS)-octahydro-1H-indol-6-ylamino]cyclohexyl}-2-(1H-tetrazol-5-yl)-6-(trifluoromethyl)benzene sulfonamide]",IC50,VIM-1; [13],21.2 nM
same,Klebsiella pneumoniae MITC95,[1]; [14],50 µM
same,Serratia marcescens MITC95,[2]; [15],3.125 µM
same,Escherichia coli MITC95,[3]; [16],1.563 µM
same,IC50,NDM-1; [17],19.8 nM
same,IC50,IMP-1; [18],75.3 nM
"NC1(c2ccc(-c3ccc(C(F)(F)F)c(S(N)(=O)=O)c3-c3nnn[nH]3)cc2)CCOC1 (stereo not drawn) [Example 730, 4′-(3-aminotetrahydrofuran-3-yl)-2-(1H-tetrazol-5-yl)-4-(trifluoromethyl)biphenyl-3-sulfonamide]",IC50,VIM-1; [19],6 nM
same,Klebsiella pneumoniae MITC95,[1]; [14],50 µM
same,Serratia marcescens MITC95,[2]; [15],3.125 µM
same,Escherichia coli MITC95,[3]; [16],3.125 µM
same,IC50,NDM-1; [17],2.8 nM
same,IC50,IMP-1; [18],3.57 nM
"NCCC1CCC(N[C@H]2CC[C@H](c3ccc(C(F)(F)F)c(S(N)(=O)=O)c3-c3nnn[nH]3)CC2)CC1 (stereo partly drawn) [Example 693, 3-(4-{[4-(2-aminoethyl)cyclohexyl]a-mino}cyclohexyl)-2-(1H-tetrazol-5-yl)-6-(trifluoromethyl)benzene sulfonamide]",IC50,VIM-1; [19],11.6 nM
same,Klebsiella pneumoniae MITC95,[1]; [14],12.5 µM
same,Serratia marcescens MITC95,[2]; [15],6.25 µM
same,Escherichia coli MITC95,[3]; [16],3.125 µM
same,IC50,NDM-1; [17],36.9 nM
same,IC50,IMP-1; [18],97.8 nM
"NS(=O)(=O)c1cccc(-c2cccc3c2CNC3=O)c1-c1nnn[nH]1 [Example 120, 3-(1-oxoisoindolin-4-yl)-2-(1H-tetrazol-5-yl)benzenesulfonamide]",IC50,VIM-1; [6],4.99 nM
same,Klebsiella pneumoniae expressing VIM-1 (IHMA 599644) MITC95,[1],4.688 µM
same,Serratia marcescens expressing IMP-1 (CL5741) MITC95,[2],18.75 µM
same,Escherichia coli expressing NDM-1 (CLB 30016) MITC95,[3],0.7813 µM
same,IC50,NDM-1; [5],1.42 nM
same,IC50,IMP-1; [5],777 nM
"N#CCCc1ccc(-c2ccnc3ccccc23)c(-c2nn[nH]n2)c1S(N)(=O)=O [Example 453, 6-(2-cyanoethyl)-3-(quinolin-4-yl)-2-(2H-tetrazol-5-yl)benzenesulfonamide]",IC50,VIM-1; [7],0.665 nM
same,Klebsiella pneumoniae MITC95,[1]; [8],6.25 µM
same,Serratia marcescens MITC95,[2]; [9],12.5 µM
same,Escherichia coli MITC95,[3]; [10],4.688 µM
same,IC50,NDM-1; [11],6.88 nM
same,IC50,IMP-1; [12],111 nM
"NS(=O)(=O)c1cccc(-c2ccnc3ncccc23)c1-c1nnn[nH]1 [Example 406, 3-(1,8-naphthyridin-4-yl)-2-(1H-tetrazol-5-yl)benzenesulfonamide]",IC50,VIM-1; [7],1.74 nM
same,Klebsiella pneumoniae MITC95,[1]; [8],3.125 µM
same,Serratia marcescens MITC95,[2]; [9],6.25 µM
same,Escherichia coli MITC95,[3]; [10],1.172 µM
same,IC50,NDM-1; [11],1.65 nM
same,IC50,IMP-1; [12],250 nM
"Nc1ncc(C#Cc2ccc(C(F)(F)F)c(S(N)(=O)=O)c2-c2nn[nH]n2)cc1CO [Example 507, 3-((6-Amino-5-(hydroxymethyl)pyridin-3-yl)ethynyl)-2-(2H-tetrazol-5-yl)-6-(trifluoromethyl)benzenesulfonamide]",IC50,VIM-1; [13],3.27 nM
same,Klebsiella pneumoniae MITC95,[1]; [14],25 µM
same,Serratia marcescens MITC95,[2]; [15],0.5859 µM
same,Escherichia coli MITC95,[3]; [16],4.688 µM
same,IC50,NDM-1; [17],11.5 nM
same,IC50,IMP-1; [18],4.31 nM
"NC(=O)CN1CCC(Cc2ccc(-c3ccc(C4CNC4)cc3)c(-c3nn[nH]n3)c2S(N)(=O)=O)CC1 [Example 609, 2-[4-[[4-[4-(azetidin-3-yl)phenyl]-2-sulfamoyl-3-(2H-tetrazol-5-yl)phenyl]methyl]-1-piperidyl]acetamide]",IC50,VIM-1; [19],1.64 nM
same,Klebsiella pneumoniae MITC95,[1]; [14],3.125 µM
same,Serratia marcescens MITC95,[2]; [15],12.5 µM
same,Escherichia coli MITC95,[3]; [16],6.25 µM
same,IC50,NDM-1; [17],21.3 nM
same,IC50,IMP-1; [18],83.9 nM
"NS(=O)(=O)c1c(C(F)(F)F)ccc(-c2cccc3cnccc23)c1-c1nn[nH]n1 [Example 515, 3-(Isoquinolin-5-yl)-2-(2H-tetrazol-5-yl)-6-(trifluoromethyl)benzenesulfonamide]",IC50,VIM-1; [13],0.309 nM
same,Klebsiella pneumoniae MITC95,[1]; [14],6.25 µM
same,Serratia marcescens MITC95,[2]; [15],0.3906 µM
same,Escherichia coli MITC95,[3]; [16],4.688 µM
same,IC50,NDM-1; [17],0.603 nM
same,IC50,IMP-1; [18],3.68 nM
"NCCCCN1CCN(c2ccc(C(F)(F)F)c(S(N)(=O)=O)c2-c2nnn[nH]2)CC1 [Example 765, 3-[4-(4-aminobutyl)piperazin-1-yl]-2-(1H-tetrazol-5-yl)-6-(trifluoromethyl) benzenesulfonamide]",IC50,VIM-1; [4],125 nM
same,Klebsiella pneumoniae MITC95,"[1]; IHMA599644 (VIM-1), 95% inhibition of bacterial growth",25 µM
same,Serratia marcescens MITC95,"[2]; CL5741 (IMP-1), 95% inhibition of bacterial growth",3.125 µM
same,Escherichia coli MITC95,"[3]; CLB30016 (NDM-1), 95% inhibition of bacterial growth",6.25 µM
same,IC50,NDM-1; [5],93.3 nM
same,IC50,IMP-1; [5],131 nM
"NS(=O)(=O)c1c(C(F)(F)F)ccc(-c2cccc(C3CCNC3)c2)c1-c1nnn[nH]1 (stereo not drawn) [Example 722, 3′-pyrrolidin-3-yl-2-(1H-tetrazol-5-yl)-4-(trifluoromethyl)biphenyl-3-sulfonamide]",IC50,VIM-1; [19],1.46 nM
same,Klebsiella pneumoniae MITC95,[1]; [14],6.25 µM
same,Serratia marcescens MITC95,[2]; [15],25 µM
same,Escherichia coli MITC95,[3]; [16],12.5 µM
same,IC50,NDM-1; [17],20.8 nM
same,IC50,IMP-1; [18],21.7 nM
"Nc1nc2c(-c3ccc(CC4CNC4)c(S(N)(=O)=O)c3-c3nn[nH]n3)cccc2s1 [Example 545, 3-(2-aminobenzo[d]thiazol-4-yl)-6-(azetidin-3-ylmethyl)-2-(2H-tetrazol-5-yl)benzenesulfonamide]",IC50,VIM-1; [13],7.69 nM
same,Klebsiella pneumoniae MITC95,[1]; [14],3.125 µM
same,Serratia marcescens MITC95,[2]; [15],3.125 µM
same,Escherichia coli MITC95,[3]; [16],0.7813 µM
same,IC50,NDM-1; [17],2.72 nM
same,IC50,IMP-1; [18],21.8 nM
"Nc1ccc(-c2ccc(C[C@H]3CC[C@H](N)CC3)c(S(N)(=O)=O)c2-c2nnn[nH]2)cn1 [Example 575, 6-(((1r,4r)-4-aminocyclohexyl)methyl)-3-(6-aminopyridin-3-yl)-2-(1H-tetrazol-5-yl)benzenesulfonamide]",IC50,VIM-1; [19],6.98 nM
same,Klebsiella pneumoniae MITC95,[1]; [14],6.25 µM
same,Serratia marcescens MITC95,[2]; [15],3.125 µM
same,Escherichia coli MITC95,[3]; [16],0.3906 µM
same,IC50,NDM-1; [17],3.15 nM
same,IC50,IMP-1; [18],59.5 nM
"NS(=O)(=O)c1nccc(N2CCC(c3nnc4ccccn34)CC2)c1-c1nnn[nH]1 [Example 241, 3-(1H-tetrazol-5-yl)-4-(4-[1,2,4]triazolo[4,3-a]pyridin-3-ylpiperidin-1-yl)pyridine-2-sulfonamide]",IC50,"VIM-1; VIM-1 IC50, VIM-1 enzyme, CCF2-FA fluorescence assay",774 nM
same,Klebsiella pneumoniae MITC95,[1]; [8],>200 µM
same,Serratia marcescens MITC95,[2]; [9],12.5 µM
same,Escherichia coli MITC95,[3]; [10],1.563 µM
same,IC50,NDM-1; [11],67.7 nM
same,IC50,IMP-1; [12],335 nM
"Cc1ccc(-c2ccc(C(F)(F)F)c(S(N)(=O)=O)c2-c2nn[nH]n2)cc1 [Example 268, 4′-methyl-2-(2H-tetrazol-5-yl)-4-(trifluoromethyl)-[1,1′-biphenyl]-3-sulfonamide]",IC50,VIM-1; [7],0.898 nM
same,Klebsiella pneumoniae MITC95,[1]; [8],9.375 µM
same,Serratia marcescens MITC95,[2]; [9],0.25 µM
same,Escherichia coli MITC95,[3]; [10],2.229 µM
same,IC50,NDM-1; [11],2.01 nM
same,IC50,IMP-1; [12],1.64 nM
"Nc1ncc2c(-c3ccc(C(F)(F)F)c(S(N)(=O)=O)c3-c3nn[nH]n3)cccc2n1 [Example 556, 3-(2-aminoquinazolin-5-yl)-2-(2H-tetrazol-5-yl)-6-(trifluoromethyl)benzenesulfonamide]",IC50,VIM-1; [19],0.122 nM
same,Klebsiella pneumoniae MITC95,[1]; [14],12.5 µM
same,Serratia marcescens MITC95,[2]; [15],12.5 µM
same,Escherichia coli MITC95,[3]; [16],25 µM
same,IC50,NDM-1; [17],0.125 nM
same,IC50,IMP-1; [18],2.97 nM
